Source: PubChem BioAssay AID2060483 (Molecular Pharmacology Branch, DTP, NCI, 2025)
“And” between values parts separate entries of the source, which are not always exact repeats. Equal entries are not always repeated. Each block holds one molecule with its values, some of them ahead of it.

System: K24384-001-R-PDC complex spheroids, viability
Assay: Anticancer human tumor K24384-001-R-PDC patient-derived pancreatic adenocarcinoma cell line growth inhibition [GQUAD]
Conditions: for viability, T/C: stronger effect = lower value
Source text: DNA G-quadruplex Stabilizer Agents in Combinations in Complex Spheroids
A high-throughput screen of multi-cell type tumor spheroids was designed to identify active combinations of DNA G-quadruplex stabilizer agents and targeted small molecules. Complex spheroids include a stromal component modeled by human endothelial cells (HUVEC) and fibroblasts modeled by human mesenchymal stem cells (MSCs). The concentration ranges selected for each drug and investigational agent were based upon clinically achievable concentrations if the clinical Cmax of the agent was known.
Compounds. The drugs and investigational agents: pidnarulex (CX-5461; NSC782164), APTO-253 (NSC789042), BRACO-19 (NSC847499), peposertib (NSC802822), ceralasertib (NSC780249), elimusertib (NSC800525), camonsertib (NSC841442), AZD-1390 (NSC803789), olaparib (NSC753686), talazoparib (NSC767125), ART-558 (NSC835418), sotorasib (NSC818433), MRTX-1133 (NSC836407), SN-38 (NSC673596), topotecan (NSC609699), etoposide (NSC141540), doxorubicin (NSC123127), gemcitabine (NSC613327), 5-fluorouracil (NSC19893), paclitaxel (NSC125973), vemurafenib (NSC761431), panobinostat (NSC761190), R-306465 (JNJ-16241199; NSC773264), adavosertib (NSC754352), TP-3654 (NSC805149), carboplatin (NSC241240), KSQ-4279 (NSC840948), and staurosporine (NSC755774) were obtained from the National Cancer Institute (NCI) Developmental Therapeutics Program Chemical Repository (34). The FDA-approved anticancer drug set is available from the NCI Developmental Therapeutics Program. […] The stock solutions were prepared in dimethyl sulfoxide (DMSO, Sigma-Aldrich, St. Louis, MO, cat. D2650) at 800-fold the tested concentration and stored at -70 degrees C prior to their use. All drugs and investigational agents were tested over a range starting from a high concentration at or near the clinical Cmax and decreasing in half-log increments. If the clinical Cmax for an agent had not been determined, the highest concentration tested was 10 microM.
2.3 Cell Culture. All cells were maintained in an incubator at 37 degrees C and 5% CO2 with 95% humidity. The PDC lines were cultured according to standard operating procedures established by the NCI PDMR. All PDCs were thawed and cultured in Matrigel-coated flasks prepared with a working solution of 1X Ham's F-12 nutrient mix, without supplementation (Invitrogen, cat. 11765054), 100 U/mL penicillin-streptomycin (Invitrogen, cat. 15140122), and 2.5% Matrigel (Corning Inc., cat. 354248) for the first three passages. The 857933-349-R-J2-PDC line was cultured in 6C/Colon 1B media, which includes advanced DMEM/F-12 (Thermo Fisher Scientific, cat. 12634028), 10 mM HEPES (Thermo Fisher Scientific, cat. 15630080), 1X GlutaMAX supplement (Thermo Fisher Scientific, cat. 35050061), 0.1 mg/mL primocin (InvivoGen, cat. ant-pm-2), 10% defined fetal bovine serum, heat inactivated (HyClone Laboratories Inc., cat. SH30070.03HI), 50% L-WRN conditioned media (ATCC, cat. CRL-3276), 1.25 mM N-Acetyl-L-cysteine (Sigma-Aldrich, cat. A9165), 10 mM nicotinamide (Sigma-Aldrich, cat. N0636), 1X B-27 supplement (Thermo Fisher Scientific, cat. 17504044), 1X N-2 supplement (Thermo Fisher Scientific, cat. 17502048), 10 microM Y-27632 dihydrochloride (Tocris Bioscience, cat. 1254), and 50 ng/mL human EGF recombinant protein (Thermo Fisher Scientific, cat. PHG0311). The 485176-168-R4-J1-PDC line was cultured in Panc media, which includes all 6C/Colon 1B media components plus 100 ng/mL human FGF-10 (Thermo Fisher Scientific, cat. 100-26), 500 nM SB-431542 (Selleckchem, cat. S1067), and gastrin (Tocris, cat. 3006).
[…]
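Further: spheroids exposed to compounds for seven days.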

IC50 (curve of compound): 0.0128 µM and 0.00492 µM and 0.0157 µM
Structure (SMILES): CCc1c2c(nc3ccc(O)cc13)-c1cc3c(c(=O)n1C2)COC(=O)[C@]3(O)CC
viability, T/C (compound 0.000999 µM): 99.6% and 68.6% and 79.3%
viability, T/C (compound 0.00316 µM): 52.9% and 58% and 61.9%
viability, T/C (compound 0.00999 µM): 65.9% and 39.2% and 63.5%
viability, T/C (compound 0.0316 µM): 43.4% and 33% and 29.1%
viability, T/C (compound 0.0999 µM): 27.3% and 38% and 31.1%
viability, T/C (compound 0.316 µM): 24.3% (2×) and 23.9%

Structure (SMILES): O=C(c1cc(Cc2n[nH]c(=O)c3ccccc23)ccc1F)N1CCN(C(=O)C2CC2)CC1 + CN(C)c1ccc(Nc2c3ccc(NC(=O)CCN4CCCC4)cc3nc3cc(NC(=O)CCN4CCCC4)ccc23)cc1
IC50 (curve of first compound, second compound 0.0316 µM): > 10 µM
IC50 (curve of first compound, second compound 0.1 µM): > 10 µM
IC50 (curve of first compound, second compound 0.316 µM): > 10 µM
IC50 (curve of first compound, second compound 1 µM): > 10 µM
IC50 (curve of first compound, second compound 3.16 µM): > 10 µM
IC50 (curve of first compound, second compound 10 µM): > 10 µM
viability, T/C (second compound 0.0316 µM, first compound 0.0316 µM): 91.5%
viability, T/C (second compound 0.0316 µM, first compound 0.1 µM): 87.2%
viability, T/C (second compound 0.0316 µM, first compound 0.316 µM): 103%
viability, T/C (second compound 0.0316 µM, first compound 1 µM): 85.3%
viability, T/C (second compound 0.0316 µM, first compound 3.16 µM): 94%
viability, T/C (second compound 0.0316 µM, first compound 10 µM): 65.3%
viability, T/C (second compound 0.1 µM, first compound 0.0316 µM): 98.4%
viability, T/C (second compound 0.1 µM, first compound 0.1 µM): 97%
viability, T/C (second compound 0.1 µM, first compound 0.316 µM): 102%
viability, T/C (second compound 0.1 µM, first compound 1 µM): 82.5%
viability, T/C (second compound 0.1 µM, first compound 3.16 µM): 78.7%
viability, T/C (second compound 0.1 µM, first compound 10 µM): 76.3%
viability, T/C (second compound 0.316 µM, first compound 0.0316 µM): 82.2%
viability, T/C (second compound 0.316 µM, first compound 0.1 µM): 90.1%
viability, T/C (second compound 0.316 µM, first compound 0.316 µM): 102%
viability, T/C (second compound 0.316 µM, first compound 1 µM): 81.2%
viability, T/C (second compound 0.316 µM, first compound 3.16 µM): 87.8%
viability, T/C (second compound 0.316 µM, first compound 10 µM): 72.2%
viability, T/C (second compound 1 µM, first compound 0.0316 µM): 85.3%
viability, T/C (second compound 1 µM, first compound 0.1 µM): 103%
viability, T/C (second compound 1 µM, first compound 0.316 µM): 97.1%
viability, T/C (second compound 1 µM, first compound 1 µM): 108%
viability, T/C (second compound 1 µM, first compound 3.16 µM): 92.9%
viability, T/C (second compound 1 µM, first compound 10 µM): 71.2%
viability, T/C (second compound 3.16 µM, first compound 0.0316 µM): 89.5%
viability, T/C (second compound 3.16 µM, first compound 0.1 µM): 90.6%
viability, T/C (second compound 3.16 µM, first compound 0.316 µM): 92%
viability, T/C (second compound 3.16 µM, first compound 1 µM): 100%
viability, T/C (second compound 3.16 µM, first compound 3.16 µM): 86.5%
viability, T/C (second compound 3.16 µM, first compound 10 µM): 62.2%
viability, T/C (second compound 10 µM, first compound 0.0316 µM): 86.4%
viability, T/C (second compound 10 µM, first compound 0.1 µM): 89.5%
viability, T/C (second compound 10 µM, first compound 0.316 µM): 94.6%
viability, T/C (second compound 10 µM, first compound 1 µM): 91.2%
viability, T/C (second compound 10 µM, first compound 3.16 µM): 86.2%
viability, T/C (second compound 10 µM, first compound 10 µM): 61.4%
